Test results taken from article PMC6246635 (Frontiers in Physiology, 2018).
Each block holds one molecule with its values, some of them ahead of it.

Tests used:
[1] = tested on: CaMKII and PLB; assay: Western blot total CaMKII and PLB expression; assay type: cell-based, murine; conditions: HL-1 cells, 2 μM, time course
Protocol: (§1) HL-1 cells (a murine cardiomyocyte cell line, Sigma-Aldrich, Vienna, Austria) were cultured in fibronectin (0.5% [w/v])/gelatin (0.02% [w/v]) coated flasks and maintained in Claycomb medium (Sigma-Aldrich) ([Claycomb et al., 1998]) containing 10% (v/v) fetal bovine serum (FBS, Thermo Fisher Scientific, IL, United States), 0.1 mM norepinephrine, 2 mM L-glutamine, 100 IU/ml penicillin and 100 μg/ml streptomycin (Sigma-Aldrich), and kept at 37°C under 5% CO2, as previously described ([Scheruebel et al., 2014]).
HL-1 cells or mouse left ventricle (LV) were lysed in ice-cold lysis buffer (containing in mM: HEPES 50, NaCl 150, EDTA 1, Na4P2O7 10, Na3VO4 2, NaF 10, 1% [v/v] Triton X-100, 10% [v/v] glycerol, pH 7.4, Sigma-Aldrich) containing a Protease Phosphatase Inhibitor Cocktail (Thermo Fisher Scientific). Pellets were separated by centrifugation at 13,000 rpm (4°C, 10 min). Protein estimation of whole cell was performed using BCA protein assay kit (Thermo Fisher Scientific). Whole cell protein lysates (50 μg) were added to 10 μl of NuPAGE LDS sample buffer (Invitrogen) containing 2 μl of NuPAGE sample reducing agent (Invitrogen). After heating for 10 min at 70°C, proteins were separated by electrophoresis on NuPAGE 4–12% Bis-Tris gel (Invitrogen) and transferred to nitrocellulose membranes (Invitrogen, 0.2 μm) ([Jain et al., 2015]). […]

[2] = tested on: mouse ventricular cardiomyocytes; assay: Ca2+ transient (CaT) measurement; assay type: cell-based; conditions: 2 μM, 2 h, 1 Hz
Protocol: (§2) Cardiomyocytes were isolated from adult mice (14–18 weeks old, either sex). The experimental procedure and number of used animals were approved by the ethics committee of the Federal Ministry of Science, Research and Economy of the Republic of Austria (BMWF-66.010/0038-V/3b/2018). Mice were euthanized (40 mg/kg ketamine and 10 mg/kg xylazine), hearts were quickly removed and cardiomyocytes were isolated as previously described ([Ackers-Johnson et al., 2016]) using collagenase 2 and 4 (Worthington Biochemical Corporation, NJ, United States). After isolation cardiomyocytes were kept in standard external solution (containing in mM: NaCl 137, KCl 5.4, CaCl2 1.8, MgCl2 1.1, NaHCO3 2.2, NaH2PO4 0.4, HEPES/Na^+ 10, D(+)-glucose 5.6, pH 7.4 adjusted with NaOH). All experiments were performed on the day of isolation.
CaT was assessed by field stimulation (platinum electrode distance: 1 cm; pulse duration: 5 ms; suprathreshold pulse amplitude: 4 V/cm) at a frequency of 1 Hz using a video-based sarcomere length detection system (IonOptix Corporation, MA, United States) at 37°C. Fluorescence intensities were measured at 340 and 380 nm of excitation and at 510 nm of emission wavelengths using a dual excitation light source. The F340/F380 ratio was used as an index of cytosolic Ca^2+ concentration and to calculate CaT relaxation tau (τCaT). Data were analyzed using Clampfit 10.2 (Molecular Devices) and LabChart 7.0 (peak analysis module, ADInstruments Ltd., Oxford, United Kingdom).

[3] = tested on: CaMKII; assay: Western blot pCaMKII (T286); assay type: cell-based, murine; conditions: HL-1 cells
Protocol: as §1
(§3) HL-1 cells or mouse left ventricle (LV) were lysed in ice-cold lysis buffer (containing in mM: HEPES 50, NaCl 150, EDTA 1, Na4P2O7 10, Na3VO4 2, NaF 10, 1% [v/v] Triton X-100, 10% [v/v] glycerol, pH 7.4, Sigma-Aldrich) containing a Protease Phosphatase Inhibitor Cocktail (Thermo Fisher Scientific). Pellets were separated by centrifugation at 13,000 rpm (4°C, 10 min). Protein estimation of whole cell was performed using BCA protein assay kit (Thermo Fisher Scientific). Whole cell protein lysates (50 μg) were added to 10 μl of NuPAGE LDS sample buffer (Invitrogen) containing 2 μl of NuPAGE sample reducing agent (Invitrogen). After heating for 10 min at 70°C, proteins were separated by electrophoresis on NuPAGE 4–12% Bis-Tris gel (Invitrogen) and transferred to nitrocellulose membranes (Invitrogen, 0.2 μm) ([Jain et al., 2015]). Membranes were blocked with 5% (w/v) non-fat milk in Tris-buffered saline containing Tween 20 (TBST, 25°C, 2 h) and incubated with primary antibodies overnight at 4°C. The following primary antibodies (diluted in 5% [w/v] BSA-TBST) were used: phospho-CaMKII (pCaMKII, T286, 1:1000, Abcam, ab32678), phospho-PLB (pPLB, T17, 1:5000, Badrilla, A010-13), DPP8 (1:500, Santa Cruz, sc-376399), DPP9 (1:500, Santa Cruz, sc-271634), CaMKII (1:500, Santa Cruz, sc-9035), and PLB (1:2000, Thermo Fisher Scientific, MA3-922). After washing, the membranes were incubated with HRP-conjugated goat anti-mouse IgG (1:10,000, Cell Signaling, 7076) or goat anti-rabbit IgG (1:10,000, Cell Signaling, 7074) (25°C, 2 h). Immunoreactive bands were visualized using Immobilon Western Chemiluminescent HRP substrate (Merck Millipore, Vienna, Austria) and developed by Bio-Rad ChemiDoc MP Imaging System. For normalization, membranes were stripped with stripping buffer (58.4 g/l NaCl, 7.5 g/l glycine, pH 2.15), blocked and incubated with a primary antibody against glyceraldehyde 3-phosphate dehydrogenase (GAPDH, 1:1000, Santa Cruz, sc-25778). Densitometric evaluation of immunoreactive bands was performed using Image Lab 4.1 software.
(§4) HL-1 cells were transfected with siRNAs (four different constructs) specific for DPP8 or DPP9 (40 nM each, Qiagen), or scrambled negative control siRNA (40 nM si-scr; Allstars negative control siRNA, Qiagen) ([Koyani et al., 2014]). The siRNA transfection was performed using Lipofectamine 3000 (Invitrogen) according to the supplier’s manual. Briefly, HL-1 (50% confluent) were transfected with 1 ml medium (composition of medium is given above, without FBS and antibiotics) containing 2 μl of Lipofectamine 3000 and the respective siRNA for 6 h at 37°C. Transfection medium was replaced with medium (containing FBS and antibiotics) and cells were grown for another 24 h. The mRNA expression levels of silenced genes were measured using qPCR (see above).

[4] = tested on: DPP9; set-up: method as in Lankas et al., 2005; conditions: ref Lankas et al., 2005; cited from earlier work
[5] = tested on: DPP8; set-up: method as in Lankas et al., 2005; conditions: ref Lankas et al., 2005; cited from earlier work
[6] = tested on: PKC; assay: PKC activity assay in HL-1 cells; assay type: cell-based, murine
Protocol: as §1, §4
Estimation of active PKC was performed using a PKC kinase activity kit (ADI-EKS-420A, Enzo Life Sciences, NY, United States) according to the manufacturer’s protocol.

[7] = tested on: PLB; assay: Western blot pPLB (T17); assay type: cell-based, murine; conditions: HL-1 cells
Protocol: as §1, §3, §4

[8] = set-up: method as in Udenfriend et al., 1972; conditions: unbound, aqueous solution; ref Udenfriend et al., 1972; cited from earlier work
[9] = set-up: method as in Onglyza, 2016; conditions: 5 mg single dose; ref Onglyza, 2016; cited from earlier work
[10] = set-up: method as in Koyani et al., 2017; Lee et al., 2016; He et al., 2009; conditions: in vitro studies; ref Koyani et al., 2017; Lee et al., 2016; He et al., 2009; cited from earlier work
[11] = tested on: mouse ventricular cardiomyocytes; assay: patch clamp action potential recording; assay type: cell-based; conditions: 2 μM, 5 min superfusion, 1 Hz
Protocol: as §2
Action potentials (APs) were recorded in the whole cell configuration of the patch clamp technique using Axopatch 200B amplifier (Molecular Devices, CA, United States) and the A/D – D/A converters Digidata 1322A (Molecular Devices). […] Ten consecutive APs were analyzed using LabChart 7.0 (Cardiac action potential analysis module, ADInstruments Ltd., Oxford, United Kingdom).

[12] = tested on: PKC; set-up: method as in Dai et al., 2014; conditions: THP-1 macrophages; ref Dai et al., 2014; cited from earlier work
[13] = plasma Cmax after single dose; assay type: in vivo; conditions: human, 5 mg single dose, equivalent of 24 ng/ml (Onglyza, 2016), read-out: plasma Cmax, molar equivalent
[14] = tested on: PKC; set-up: method as in Hasegawa et al., 2016; conditions: human endothelial cells; ref Hasegawa et al., 2016; cited from earlier work
[15] = set-up: method as in Green et al., 2015; conditions: TECOS trial, T2DM patients; ref Green et al., 2015; cited from earlier work
[16] = tested on: HL-1 cardiomyocytes; assay: fluorescence microscopy of fluorescamine adduct uptake; assay type: cell-based, murine; conditions: HL-1 cells, drug-fluorescamine 2–2 μM
Protocol: as §1, with “2014]). […] Fluorescence images were captured at excitation/emission wavelengths of 390/470 nm.” for “2014]).”

Compound: CC[C@@H](C)[C@H](N)C(=O)N1Cc2ccccc2C1.Cl [TC-E 5007]
total CaMKII and PLB protein levels [1]: did not affect
CaT relaxation (reciprocal of τCaT) [2]: impaired cardiac relaxation
reduced CaMKII phosphorylation (T286), time from which observed ([3]; 2 μM): ≥ 30 min
reduced PKC activity, time from which observed ([6]; 2 μM): ≥ 10 min
reduced pPLB (T17), time from which observed ([7]; 2 μM): ≥ 60 min

Compound: O=C1OC2(OC=C(c3ccccc3)C2=O)c2ccccc21 (stereo not shown) [fluorescamine]
half-life [8]: 5 to 10 s

Compound: N#C[C@@H]1C[C@@H]2C[C@@H]2N1C(=O)[C@@H](N)C12CC3CC(CC(O)(C3)C1)C2 [saxagliptin]
plasma Cmax [9]: 24 ng/mL
membrane permeability [10]: significant membrane permeability
CaT relaxation (reciprocal of τCaT) [2]: impaired cardiac relaxation
reduced CaMKII phosphorylation (T286), time from which observed ([3]; 2 μM): ≥ 2.5 min
pCaMKII expression in DPP8 knocked down cardiomyocytes ([3]; 2 μM, 5 min, si-DPP8): effectively inhibited
inhibition of CaMKII phosphorylation, concentration from which observed ([3]; 5 min): ≥ 200 nM
action potential duration (APD, 90% repolarization) [11]: prolongation of APD
oxidized low-density lipoprotein-induced pPKC levels [12]: inhibited
Cmax [13]: ~76 nM
reduced PKC activity, time from which observed ([6]; 2 μM): ≥ 2.5 min
efficacy on PKC activity in DPP8/DPP9 silenced cardiomyocytes ([6]; 2 μM, 10 min): significantly abolished in DPP9 (but not DPP8) silenced cardiomyocytes
reduced PKC activity, concentration from which observed ([6]; 10 min): ≥ 1 µM
reduced pPLB (T17), time from which observed ([7]; 2 μM): ≥ 15 min
efficacy on pPLB expression in DPP8/DPP9 silenced cells ([7]; 2 μM, 30 min): abolished in DPP9 (but not DPP8) silenced cells
reduced pPLB expression, concentration from which observed ([7]; 30 min): ≥ 200 nM

action potential duration (APD, 90% repolarization) [11]: not
Compound: N[C@@H](CC(=O)N1CCn2c(nnc2C(F)(F)F)C1)Cc1cc(F)c(F)cc1F [sitagliptin]
effect on PKC activity [14]: ineffective
effect on the hospitalization of HF [15]: did not show any effect
membrane permeability [10]: significant membrane permeability
CaT relaxation (reciprocal of τCaT) [2]: ineffective
effect on pCaMKII expression, time course ([3]; 2 μM): failed to inhibit
effect on CaMKII phosphorylation, concentration-dependent ([3]; up to 10 μM, 5 min): no effect
cellular uptake and localization (fluorescence) [16]: internalized by cardiomyocytes and localizes in the cytosol
effect on intracellular PKC activity ([6]; time course (2 μM) and concentration series (10 min)): no effect
effect on PLB phosphorylation levels ([7]; time course (2 μM) and concentration series (30 min)): neither time- (Figure 2F) nor concentration-dependent experiments (Figure 2H) showed an effect

Compound: N#C[C@@H]1CCCN1C(=O)CNC12CC3CC(CC(O)(C3)C1)C2 [vildagliptin]
membrane permeability [10]: significant membrane permeability
